According to PMC3949708, “Identification and Biosynthesis of a Novel Xanthomonadin-Dialkylresorcinol-Hybrid from Azoarcus sp. BH72” (PLoS ONE, 2014):

How the values were obtained:
ArcB = target: T1, ArcB (Azoarcus olearius, UniProt A1KCI0); experiment: GC-MS product detection after MSTFA derivatization; assay type: biochemical; settings: 1 mM substrate, 2 µg ArcB, 100 mM Tris pH 7.4, 37 °C, 10 or 60 min
T1 construct: gene azo3920; full gene; CherryTag-His6 fusion cut off with TEV protease; E. coli BL21 (DE3) Star

ArcT = target: T2, ArcT (Azoarcus olearius, UniProt A1K222); experiment: MALDI-MS ATP-pyrophosphate isotopic exchange; assay type: biochemical; settings: MgCl2, pyrophosphate, 20 mM Tris pH 7.4
T2 construct: gene azo0260; full gene; CherryTag-His6 fusion cut off with TEV protease; E. coli BL21 (DE3) Star
T2 sequence (A1K222 entry or part of it): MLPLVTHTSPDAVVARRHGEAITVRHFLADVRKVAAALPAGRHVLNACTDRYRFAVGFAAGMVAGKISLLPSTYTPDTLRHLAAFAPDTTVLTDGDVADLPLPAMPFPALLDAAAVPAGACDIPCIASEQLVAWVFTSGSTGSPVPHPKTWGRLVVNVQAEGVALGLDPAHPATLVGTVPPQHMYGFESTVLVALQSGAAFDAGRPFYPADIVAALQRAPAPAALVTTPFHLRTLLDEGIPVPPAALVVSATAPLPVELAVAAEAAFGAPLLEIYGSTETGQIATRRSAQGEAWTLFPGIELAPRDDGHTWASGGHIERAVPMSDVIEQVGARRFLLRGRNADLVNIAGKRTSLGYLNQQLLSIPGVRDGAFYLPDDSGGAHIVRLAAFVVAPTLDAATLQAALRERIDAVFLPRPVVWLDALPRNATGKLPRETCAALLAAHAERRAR

T1 sequence (A1KCI0 entry or part of it): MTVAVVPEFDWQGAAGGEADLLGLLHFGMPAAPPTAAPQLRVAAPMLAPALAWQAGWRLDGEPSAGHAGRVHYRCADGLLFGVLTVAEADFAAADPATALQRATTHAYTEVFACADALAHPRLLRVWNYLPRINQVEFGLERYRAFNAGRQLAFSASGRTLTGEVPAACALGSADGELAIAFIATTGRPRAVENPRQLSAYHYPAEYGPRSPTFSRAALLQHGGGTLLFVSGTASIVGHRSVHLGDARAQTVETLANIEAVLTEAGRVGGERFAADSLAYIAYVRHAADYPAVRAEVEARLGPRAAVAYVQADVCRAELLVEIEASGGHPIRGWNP

O=C(O)c1cccc(O)c1 [3-hydroxybenzoic acid]
GC-MS product detection after MSTFA derivatization (ArcB; formed from chorismic acid): 3-HBA was only detectable in assays containing ArcB | MALDI-MS ATP-pyrophosphate isotopic exchange (ArcT; adenylation, [γ-18O4]-ATP): MALDI-MS analysis showed ATP-label exchange in assays with 3-HBA

Nc1ncnc2c1ncn2[C@@H]1O[C@H](COP(=O)(O)OP(=O)(O)OP(=O)(O)O)[C@@H](O)[C@H]1O [[γ-^18O4]-ATP]
MALDI-MS ATP-pyrophosphate isotopic exchange (ArcT; 3-HBA as co-substrate, labelled compound): MALDI-MS analysis showed ATP-label exchange in assays with 3-HBA

C=C(O[C@@H]1C=C(C(=O)O)C=C[C@H]1O)C(=O)O [chorismic acid]
GC-MS product detection after MSTFA derivatization (ArcB): 3-HBA was only detectable in assays containing ArcB
